pIC50: −log10 of the molar value. Where only a bound is given, the exact number is not on record here.

The target in one data set is CYP2C9 (Homo sapiens, UniProt P11712). Nature of the data set: Inhibition of CYP2C9 (unknown origin) at 3 uM. In kind it is ADME.
A further data set relates to NCI-N87. Nature of the data set: Cytotoxicity against human NCI-N87 cells assessed as cell viability after 4 days by MTS assay. Format: functional, cell-based. The note with it: NCI-N87, 96 h.
In the next data set the target is T1, CYP2C8 (Homo sapiens, UniProt P10632).
T1 sequence (P10632 whole entry): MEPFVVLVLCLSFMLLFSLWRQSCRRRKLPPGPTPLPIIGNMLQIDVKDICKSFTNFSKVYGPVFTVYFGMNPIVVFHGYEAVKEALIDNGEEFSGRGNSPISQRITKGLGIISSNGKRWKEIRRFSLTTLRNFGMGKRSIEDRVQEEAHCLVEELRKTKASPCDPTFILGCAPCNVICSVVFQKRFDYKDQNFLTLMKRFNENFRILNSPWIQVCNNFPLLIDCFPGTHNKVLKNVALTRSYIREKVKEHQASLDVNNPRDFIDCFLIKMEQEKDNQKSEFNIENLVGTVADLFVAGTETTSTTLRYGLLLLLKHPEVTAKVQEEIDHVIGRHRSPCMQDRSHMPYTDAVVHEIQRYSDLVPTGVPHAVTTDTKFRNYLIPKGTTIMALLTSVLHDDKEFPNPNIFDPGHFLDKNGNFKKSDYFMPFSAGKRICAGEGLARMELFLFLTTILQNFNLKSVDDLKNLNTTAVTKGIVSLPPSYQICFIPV
Nature of the data set: Inhibition of CYP2C8 (unknown origin) at 3 uM. Format: ADME.

The subject of the next data set is BT-474. In words: Cytotoxicity against human BT474 cells assessed as cell viability after 4 days by MTS assay. In kind it is functional, cell-based. As to conditions: BT-474, 96 h.
The nature of data set [1]: Apparent permeability from apical to basolateral side in RRCK cells. Format: ADME, cell-based, Canis lupus familiaris, MDCKII-LE. The note with it: dog, MDCK.
A further data set concerns the target T2, CYP1A2 (Homo sapiens, UniProt P05177).
T2 sequence (P05177 whole entry): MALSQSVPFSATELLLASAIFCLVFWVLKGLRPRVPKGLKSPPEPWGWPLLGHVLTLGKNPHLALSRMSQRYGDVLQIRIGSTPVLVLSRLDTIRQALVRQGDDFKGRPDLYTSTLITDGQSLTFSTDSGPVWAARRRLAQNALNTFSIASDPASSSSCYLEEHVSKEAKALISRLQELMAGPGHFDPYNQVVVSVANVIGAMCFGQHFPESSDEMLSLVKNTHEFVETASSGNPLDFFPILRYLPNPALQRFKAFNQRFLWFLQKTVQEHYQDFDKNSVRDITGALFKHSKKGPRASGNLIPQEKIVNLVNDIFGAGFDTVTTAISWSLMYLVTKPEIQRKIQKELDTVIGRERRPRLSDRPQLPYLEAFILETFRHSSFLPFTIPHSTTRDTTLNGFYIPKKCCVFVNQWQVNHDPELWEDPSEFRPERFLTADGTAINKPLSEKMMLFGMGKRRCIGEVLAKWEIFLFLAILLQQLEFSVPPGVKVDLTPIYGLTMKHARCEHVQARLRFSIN
Nature of the data set: Inhibition of CYP1A2 (unknown origin) at 3 uM. In kind it is ADME.

Another data set addresses CYP2D6 (Homo sapiens, UniProt P10635). In words: Inhibition of CYP2D6 (unknown origin) at 3 uM. Format: ADME.
Data set [2] is described as follows: Apparent intrinsic clearance in human liver microsomes at 1 uM. The note with it: read-out: CLH(app). In kind it is ADME. Background: Microsomes from liver hold many membrane-bound enzymes, among them those of drug oxidation.
A further data set has as its target CYP3A4 (Homo sapiens, UniProt P08684). In words: Inhibition of CYP3A4 (unknown origin) at 3 uM. Format: ADME.
The test system of a further data set is HUVEC. In words: Cytotoxicity against HUVEC assessed as cell viability after 4 days by MTS assay. In kind it is cell-based. As to conditions: Homo sapiens, 96 h. For orientation: Formazan colour is commonly taken as a measure of viable cells.
For a further data set, the system named is MDA-MB-468. Nature of the data set: Cytotoxicity against human MDA-MB-468 cells assessed as cell viability after 4 days by MTS assay. In kind it is functional, cell-based. The note with it: MDA-MB-468, 96 h.
The next data set concerns the target MDR1 (ABCB1, P-gp) (Homo sapiens, UniProt P08183). Nature of the data set: Activity at MDR1 (unknown origin) expressed in MDCK cells assessed as efflux ratio of permeability at 2 uM. In kind it is ADME, cell-based.

Sequence of CYP3A4 (P08684 whole entry): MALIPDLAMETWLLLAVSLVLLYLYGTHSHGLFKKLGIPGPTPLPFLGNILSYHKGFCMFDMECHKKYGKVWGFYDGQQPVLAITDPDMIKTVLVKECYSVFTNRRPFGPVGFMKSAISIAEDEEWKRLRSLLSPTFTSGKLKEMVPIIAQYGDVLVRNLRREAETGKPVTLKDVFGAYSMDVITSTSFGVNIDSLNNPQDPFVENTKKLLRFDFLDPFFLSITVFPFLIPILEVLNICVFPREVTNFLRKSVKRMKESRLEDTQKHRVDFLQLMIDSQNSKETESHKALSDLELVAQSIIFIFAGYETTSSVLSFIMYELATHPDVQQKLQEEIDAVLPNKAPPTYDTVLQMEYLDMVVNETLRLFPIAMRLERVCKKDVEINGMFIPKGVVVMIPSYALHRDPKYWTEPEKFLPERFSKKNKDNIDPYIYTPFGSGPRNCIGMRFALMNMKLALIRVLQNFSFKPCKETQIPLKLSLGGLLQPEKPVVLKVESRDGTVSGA
Sequence of MDR1 (ABCB1, P-gp) (P08183 whole entry): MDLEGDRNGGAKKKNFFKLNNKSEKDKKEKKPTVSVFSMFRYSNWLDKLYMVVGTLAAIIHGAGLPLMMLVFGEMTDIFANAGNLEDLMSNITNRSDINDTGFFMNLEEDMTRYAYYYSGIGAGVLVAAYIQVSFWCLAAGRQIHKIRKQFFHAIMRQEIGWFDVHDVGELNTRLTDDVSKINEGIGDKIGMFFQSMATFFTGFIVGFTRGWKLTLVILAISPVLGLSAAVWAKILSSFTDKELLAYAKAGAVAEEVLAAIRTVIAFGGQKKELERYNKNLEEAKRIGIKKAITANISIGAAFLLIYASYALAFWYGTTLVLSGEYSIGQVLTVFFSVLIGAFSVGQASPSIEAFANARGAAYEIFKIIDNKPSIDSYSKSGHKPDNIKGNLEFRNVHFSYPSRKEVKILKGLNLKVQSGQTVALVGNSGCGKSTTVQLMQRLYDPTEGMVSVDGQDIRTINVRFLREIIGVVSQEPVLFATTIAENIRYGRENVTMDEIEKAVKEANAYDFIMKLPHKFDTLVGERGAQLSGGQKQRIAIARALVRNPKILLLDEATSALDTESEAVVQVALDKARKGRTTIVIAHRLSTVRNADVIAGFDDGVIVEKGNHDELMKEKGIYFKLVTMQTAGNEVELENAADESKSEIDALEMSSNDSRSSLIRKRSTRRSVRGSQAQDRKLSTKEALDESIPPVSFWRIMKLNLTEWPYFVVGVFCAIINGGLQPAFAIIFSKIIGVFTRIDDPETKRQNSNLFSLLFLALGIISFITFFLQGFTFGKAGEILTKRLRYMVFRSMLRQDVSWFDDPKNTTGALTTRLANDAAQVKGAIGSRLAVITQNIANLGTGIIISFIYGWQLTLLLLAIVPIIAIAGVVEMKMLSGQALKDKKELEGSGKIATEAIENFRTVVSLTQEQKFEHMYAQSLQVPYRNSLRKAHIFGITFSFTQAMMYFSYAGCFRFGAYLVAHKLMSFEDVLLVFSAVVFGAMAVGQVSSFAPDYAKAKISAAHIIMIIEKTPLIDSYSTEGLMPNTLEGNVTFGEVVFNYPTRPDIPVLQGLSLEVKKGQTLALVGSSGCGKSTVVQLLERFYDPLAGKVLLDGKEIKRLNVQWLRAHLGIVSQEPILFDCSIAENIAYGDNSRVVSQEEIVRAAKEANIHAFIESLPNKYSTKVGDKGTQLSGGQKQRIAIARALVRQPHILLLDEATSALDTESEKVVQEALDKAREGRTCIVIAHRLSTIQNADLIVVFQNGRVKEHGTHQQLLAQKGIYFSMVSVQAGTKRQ
Sequence of CYP2D6 (P10635 whole entry): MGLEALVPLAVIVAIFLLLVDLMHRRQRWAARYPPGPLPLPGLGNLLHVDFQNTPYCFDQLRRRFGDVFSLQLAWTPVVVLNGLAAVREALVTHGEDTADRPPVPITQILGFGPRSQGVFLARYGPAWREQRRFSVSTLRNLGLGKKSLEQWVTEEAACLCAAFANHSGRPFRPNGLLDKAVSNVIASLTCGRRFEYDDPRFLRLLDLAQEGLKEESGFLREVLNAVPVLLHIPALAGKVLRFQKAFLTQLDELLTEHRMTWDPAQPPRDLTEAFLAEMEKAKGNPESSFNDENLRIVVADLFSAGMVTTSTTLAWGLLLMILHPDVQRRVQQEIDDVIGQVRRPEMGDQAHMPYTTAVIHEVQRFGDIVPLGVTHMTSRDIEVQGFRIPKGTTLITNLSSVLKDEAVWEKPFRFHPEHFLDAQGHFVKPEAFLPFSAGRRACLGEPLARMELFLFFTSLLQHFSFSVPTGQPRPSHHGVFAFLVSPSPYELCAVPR
Sequence of CYP2C9 (P11712 whole entry): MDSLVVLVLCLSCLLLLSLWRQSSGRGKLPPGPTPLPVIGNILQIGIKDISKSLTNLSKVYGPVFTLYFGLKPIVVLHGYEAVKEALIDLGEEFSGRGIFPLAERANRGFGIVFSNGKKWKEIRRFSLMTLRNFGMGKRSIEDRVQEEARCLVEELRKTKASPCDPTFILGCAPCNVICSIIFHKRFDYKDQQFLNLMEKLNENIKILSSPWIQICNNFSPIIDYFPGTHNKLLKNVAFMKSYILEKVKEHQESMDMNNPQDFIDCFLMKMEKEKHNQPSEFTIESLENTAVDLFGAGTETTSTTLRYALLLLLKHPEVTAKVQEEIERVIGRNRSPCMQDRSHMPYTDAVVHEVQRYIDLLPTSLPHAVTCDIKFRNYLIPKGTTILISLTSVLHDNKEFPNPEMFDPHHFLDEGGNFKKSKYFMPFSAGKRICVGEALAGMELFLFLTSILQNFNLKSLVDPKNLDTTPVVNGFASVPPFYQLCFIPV

In general, inhibition refers to the percentage by which the read-out fell short of the control. By pIC50 is commonly meant the IC50 on a negative log10 scale, so that one unit is a factor of ten. One may read the Papp A→B as how fast a substance crosses the layer from the apical side. With `COc1ccc2c(c1O)CCCC(CCCC#N)=C2c1cc(OC)c(OC)c(OC)c1`, the inhibition at 3 µM was found to be 23.7% against CYP2C9; 50.5% against CYP2C8; 1.5% at CYP1A2; 0.9% on CYP2D6; 25.3% at CYP3A4. In addition, the negative logarithm of the IC50 (pIC50) was 6.08 in the data set on NCI-N87, 6.04 with BT-474, 6.16 with HUVEC and < 6.00 with MDA-MB-468. In addition, in data set [1], the Papp A→B was found to be 16.6 ×10⁻⁶ cm/s. For the same compound, in [2], the microsomal CLint at 1 µM was found to be 239 µL/min/mg.
As to `COc1ccc2c(c1O)CC=CC=C2c1cc(OC)c(OC)c(OC)c1`, the pIC50 was 8.25 in the data set with NCI-N87, 8.26 in the data set on BT-474, 8.30 in the data set with HUVEC and 8.40 with MDA-MB-468.
Take `COc1ccc2c(c1O)CCCC(CCC(N)=O)=C2c1cc(OC)c(OC)c(OC)c1`: the pIC50 is < 6.00 with NCI-N87, < 6.00 in the data set on BT-474, 6.33 in the data set with HUVEC and < 6.00 with MDA-MB-468.
Broadly, the efflux ratio is a quotient of directional permeabilities that is used to spot active efflux. For the compound `COc1ccc2c(c1O)CCCC(CCC#N)=C2c1cc(OC)c(OC)c(OC)c1`, the inhibition at 3 µM against CYP2C9 came to 75.7%; against CYP2C8 it was 45.3%; at CYP1A2, 2.8%; against CYP2D6 it was 2.8%; against CYP3A4, 31.4%. Moreover, the negative logarithm of the IC50 (pIC50) with NCI-N87 was 6.06; in the data set with BT-474, 6.14; in the data set on HUVEC, 6.19; in the data set with MDA-MB-468 it was 6.25. The apical-to-basolateral permeability (Papp A→B) in data set [1] turned out to be 19.6 ×10⁻⁶ cm/s. Further, the microsomal CLint at 1 µM in data set [2] is > 320 µL/min/mg. The efflux ratio at 2 µM on MDR1 (ABCB1, P-gp) came to 1.2.
Take `COc1ccc2c(c1O)CCCC(CCN(C)C)=C2c1cc(OC)c(OC)c(OC)c1`: the negative-log IC50 (pIC50) in the data set with NCI-N87 was < 6.00; with BT-474 it was < 6.00; with HUVEC, 6.60; in the data set on MDA-MB-468, < 6.00.
For the compound `COc1ccc2c(c1O)CCCC(CCO)=C2c1cc(OC)c(OC)c(OC)c1`, the negative logarithm of the IC50 (pIC50) in the data set with NCI-N87 was 6.70; in the data set with BT-474 it was 6.66; in the data set on HUVEC, 6.81; in the data set on MDA-MB-468, 6.94.
Take `COc1ccc2c(c1O)CCCC(Cc1ccccc1)=C2c1cc(OC)c(OC)c(OC)c1`: the inhibition at 3 µM on CYP2C9 turned out to be 55.3%; on CYP2C8 it was 83.5%; at CYP1A2 it was 18.4%; against CYP2D6, 26.2%; against CYP3A4 it was 33.9%. Also, the pIC50 in the data set with NCI-N87 is < 6.00; in the data set with BT-474 it was < 6.00; with HUVEC, 6.02; in the data set with MDA-MB-468 it was < 6.00. In data set [2], the microsomal CLint at 1 µM was 51.2 µL/min/mg.
Turning to `CCC1=C(c2cc(OC)c(OC)c(OC)c2)c2ccc(OC)c(O)c2CCC1`, the inhibition at 3 µM against CYP2C9 stood at 75%; against CYP2C8, 71.5%; against CYP1A2 it was 11.3%; on CYP2D6 it was 16%; against CYP3A4, 31.8%. The negative logarithm of the IC50 (pIC50) in the data set with NCI-N87 was 6.48; in the data set with BT-474, 6.45; with HUVEC it was 6.71; with MDA-MB-468, 6.52. For the same compound, in data set [1], the Papp A→B is 3.3 ×10⁻⁶ cm/s. Also, in data set [2], the microsomal CLint at 1 µM was 136 µL/min/mg. On MDR1 (ABCB1, P-gp), the efflux ratio at 2 µM is 1.
Turning to `COc1ccc2c(c1O)CCCC(C)=C2c1cc(OC)c(OC)c(OC)c1`, the inhibition at 3 µM on CYP2C9 came out at 91.5%; on CYP2C8, 83.2%; against CYP1A2 it was 19.7%; against CYP2D6, 13.5%; against CYP3A4, 39.6%. In addition, the pIC50 in the data set on NCI-N87 is 6.69; in the data set with BT-474, 7.28; in the data set on HUVEC, 7.11; with MDA-MB-468 it was 7.35. In addition, in data set [1], the Papp A→B was 6.2 ×10⁻⁶ cm/s. The microsomal CLint at 1 µM in data set [2] came to 108 µL/min/mg. On MDR1 (ABCB1, P-gp), the efflux ratio at 2 µM is 13.1.
For the compound `COc1ccc2c(c1O)CCCC=C2c1cc(OC)c(OC)c(OC)c1`, the inhibition at 3 µM stood at 89.7% at CYP2C9; 77.6% against CYP2C8; 19% on CYP1A2; 6.2% at CYP2D6; 16.1% at CYP3A4. In addition, the pIC50 is 8.42 in the data set with NCI-N87, 8.54 with BT-474, 8.34 in the data set on HUVEC and 8.82 in the data set with MDA-MB-468. Further, the microsomal CLint at 1 µM in [2] was 54.1 µL/min/mg.
As to `COc1ccc2c(c1O)C[C@@H]1C=C[C@@]2(c2cc(OC)c(OC)c(OC)c2)O1` (racemic), the pIC50 in the data set on NCI-N87 was 7.81; in the data set with BT-474, 7.96; with HUVEC it was 7.80; with MDA-MB-468 it was 8.05.
With `COc1ccc2c(c1O)CCCC(CC(O)CO)=C2c1cc(OC)c(OC)c(OC)c1` (racemic), the inhibition at 3 µM against CYP2C9 is 6.1%; on CYP2C8, 35.4%; at CYP1A2 it was 0%; at CYP2D6, 0%; on CYP3A4, 3.7%. The pIC50 was < 6.00 in the data set on NCI-N87, 6.00 in the data set on BT-474, < 6.00 in the data set on HUVEC and 6.04 in the data set on MDA-MB-468. Moreover, the Papp A→B in data set [1] was determined as 16.1 ×10⁻⁶ cm/s. Also, the microsomal CLint at 1 µM in data set [2] was 66.3 µL/min/mg.
As for `COc1cc2c(c(OC)c1OC)-c1ccc(OC)c(=O)cc1[C@@H](NC(C)=O)CC2` [COLCHICINE], the inhibition at 3 µM at CYP2C9 is 11.1%; against CYP2C8, 20.4%; on CYP2D6 it was 7.7%. For the same compound, the pIC50 in the data set on NCI-N87 is 8.27; with BT-474, 8.42; in the data set with HUVEC, 7.88; with MDA-MB-468, 8.68. Moreover, the Papp A→B in data set [1] was determined as 0.76 ×10⁻⁶ cm/s.
With `COc1ccc(/C=C\c2cc(OC)c(OC)c(OC)c2)cc1O` [COMBRETASTATIN A4], the pIC50 in the data set on NCI-N87 was 8.60; in the data set on BT-474 it was 8.41; with HUVEC, 8.60; with MDA-MB-468 it was 8.96.

The values above are taken from ChEMBL document CHEMBL3091388, “New cytotoxic benzosuberene analogs. Synthesis, molecular modeling and biological evaluation” (Bioorg Med Chem Lett, 2013).
